Assay results published in patent US9938322B2, “β-hairpin peptidomimetics” (priority 2013, dated 2018).
Where a SMILES comes first, the peptide text is derived from it. [ ]: non-standard residue; d: D form. The star is where a group is joined. Phe(4-NH2) = Nc1ccc(C[C@H](N)C(=O)O)cc1; Pro(3S-OH) = O=C(O)[C@H]1NCC[C@@H]1O; Dap(CONH2) = NC(=O)NC[C@H](N)C(=O)O; Cha = N[C@@H](CC1CCCCC1)C(=O)O; Tle = CC(C)(C)[C@H](N)C(=O)O; dDab = NCC[C@@H](N)C(=O)O; Orn = NCCC[C@H](N)C(=O)O; Dab = NCC[C@H](N)C(=O)O; Nva = CCC[C@H](N)C(=O)O; Dap = NC[C@H](N)C(=O)O; X3 = O=C(C(O)CO)*

system: human red blood cells (hRBC); assay: Hemolysis of human red blood cells; type: cell-based; settings: red cells of human, 1 h, 100
Method in brief: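 Washed fresh human erythrocytes (20% v/v, about 0.9×10^9 cells/ml final) incubated with peptide at 100 μg/ml for 1 h at 37° C with shaking. Supernatant OD540 read; hemolysis expressed relative to 2.5% Triton X-100 (100%) and PBS with 0.001% acetic acid (0%).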

**Q.** For `C[C@@H]1NC(=O)[C@H](C(C)(C)C)NC(=O)[C@H](CCN)NC(=O)[C@H](Cc2c[nH]c3ccccc23)NC(=O)[C@H](CCN)NC(=O)[C@@H](CCN)NC(=O)[C@H](CCCN)NC(=O)[C@H](CCN)NC(=O)[C@H](CC2CCCCC2)NC(=O)[C@H](CNC(=O)C(O)CO)NC(=O)[C@H](Cc2c[nH]c3ccccc23)NC(=O)[C@@H]2CCCN2C(=O)[C@H]2CCCN2C(=O)[C@H](CO)NC1=O` (stereo partly shown) [compound 13] (cyclo(W[Dap](X3)[Cha][Dab][Orn][dDab][Dab]W[Dab][Tle]AS[dP]P)), which “Hemolysis at 100 μg/ml” value is on record?
**A.** 2%

**Q.** Which “Hemolysis at 100 μg/ml” value does the source give for `CC[C@H](C)[C@@H]1NC(=O)[C@@H]2CCCN2C(=O)[C@H]2CCCN2C(=O)[C@H](CO)NC(=O)[C@H](C)NC(=O)[C@H](C(C)(C)C)NC(=O)[C@H](CCN)NC(=O)[C@H](Cc2c[nH]c3ccccc23)NC(=O)[C@H](CCN)NC(=O)[C@@H](CCN)NC(=O)[C@H](CCCN)NC(=O)[C@H](CCN)NC(=O)[C@H](Cc2ccc(N)cc2)NC(=O)[C@H](CO)NC1=O` [compound 83] (cyclo(IS[Phe(4-NH2)][Dab][Orn][dDab][Dab]W[Dab][Tle]AS[dP]P)) here?
**A.** 0.5%

**Q.** Which “Hemolysis at 100 μg/ml” value does the source give for `CC(C)[C@@H]1NC(=O)[C@@H]2CCCN2C(=O)[C@H]2CCCN2C(=O)[C@H](CO)NC(=O)[C@H](C)NC(=O)[C@H](C(C)(C)C)NC(=O)[C@H](CCN)NC(=O)[C@H](Cc2c[nH]c3ccccc23)NC(=O)[C@H](CCN)NC(=O)[C@@H](CCN)NC(=O)[C@H](CCCN)NC(=O)[C@H](CCN)NC(=O)[C@H](CC2CCCCC2)NC(=O)[C@H](C)NC1=O` [compound 51] (cyclo(VA[Cha][Dab][Orn][dDab][Dab]W[Dab][Tle]AS[dP]P)) here?
**A.** 1%

**Q.** For `CC(C)C[C@@H]1NC(=O)[C@@H]2CCCN2C(=O)[C@H]2CCCN2C(=O)[C@H](CO)NC(=O)[C@H](CCN)NC(=O)[C@H](C(C)(C)C)NC(=O)[C@H](CCN)NC(=O)[C@H](Cc2c[nH]c3ccccc23)NC(=O)[C@H](CCN)NC(=O)[C@@H](CCN)NC(=O)[C@H](CCCN)NC(=O)[C@H](CCN)NC(=O)[C@H](Cc2ccc(O)cc2)NC(=O)[C@H](CC(=O)O)NC1=O` [compound 114] (cyclo(LDY[Dab][Orn][dDab][Dab]W[Dab][Tle][Dab]S[dP]P)), which “Hemolysis at 100 μg/ml” value is on record?
**A.** 0.5%

**Q.** With `CC(C)C[C@@H]1NC(=O)[C@@H]2CCCN2C(=O)[C@H]2CCCN2C(=O)[C@H](CO)NC(=O)[C@H](C)NC(=O)[C@H](Cc2c[nH]c3ccccc23)NC(=O)[C@H](CCN)NC(=O)[C@H](Cc2c[nH]c3ccccc23)NC(=O)[C@H](CCN)NC(=O)[C@@H](CCN)NC(=O)[C@H](CCCCN)NC(=O)[C@H](CCN)NC(=O)[C@H](Cc2ccc(O)cc2)NC(=O)[C@H](CO)NC1=O` [compound 108] (cyclo(LSY[Dab]K[dDab][Dab]W[Dab]WAS[dP]P)) as the compound, how does the “Hemolysis at 100 μg/ml” value read?
**A.** 1%

**Q.** With `CC[C@H](C)[C@@H]1NC(=O)[C@@H]2CCCN2C(=O)[C@H]2CCCN2C(=O)[C@H](CO)NC(=O)[C@H](C)NC(=O)[C@H](Cc2c[nH]c3ccccc23)NC(=O)[C@H](CCN)NC(=O)[C@H](Cc2c[nH]c3ccccc23)NC(=O)[C@H](CCN)NC(=O)[C@@H](CCN)NC(=O)[C@H](CCCN)NC(=O)[C@H](CCN)NC(=O)[C@H](Cc2ccc(O)cc2)NC(=O)[C@H](CO)NC1=O` [compound 110] (cyclo(ISY[Dab][Orn][dDab][Dab]W[Dab]WAS[dP]P)) as the compound, how does the “Hemolysis at 100 μg/ml” value read?
**A.** 1%

**Q.** `CC(C)C[C@@H]1NC(=O)[C@@H]2CCCN2C(=O)[C@H]2CCCN2C(=O)[C@H](CO)NC(=O)[C@H](C)NC(=O)[C@H](C(C)(C)C)NC(=O)[C@H](CCN)NC(=O)[C@H](Cc2c[nH]c3ccccc23)NC(=O)[C@@H](CCN)NC(=O)[C@@H](CCN)NC(=O)[C@H](CCCN)NC(=O)[C@H](CCN)NC(=O)[C@H](Cc2ccc(O)cc2)NC(=O)[C@H](CO)NC1=O` [compound 155] (cyclo(LSY[Dab][Orn][dDab][dDab]W[Dab][Tle]AS[dP]P)) was tested. Which “Hemolysis at 100 μg/ml” value did it give?
**A.** 0%

**Q.** With `CCC[C@@H]1NC(=O)[C@H](CCN)NC(=O)[C@H](Cc2c[nH]c3ccccc23)NC(=O)[C@H](CCN)NC(=O)[C@@H](CCN)NC(=O)[C@H](CCCN)NC(=O)[C@H](CCN)NC(=O)[C@H](Cc2ccc(O)cc2)NC(=O)[C@H](CO)NC(=O)[C@H](Cc2c[nH]c3ccccc23)NC(=O)[C@@H]2CCCN2C(=O)[C@H]2CCCN2C(=O)[C@H](CO)NC(=O)[C@H](C)NC1=O` [compound 71] (cyclo(WSY[Dab][Orn][dDab][Dab]W[Dab][Nva]AS[dP]P)) as the compound, how does the “Hemolysis at 100 μg/ml” value read?
**A.** 0%

**Q.** How did the “Hemolysis at 100 μg/ml” value turn out when `C[C@@H]1NC(=O)[C@H](C(C)(C)C)NC(=O)[C@H](CCN)NC(=O)[C@H](Cc2c[nH]c3ccccc23)NC(=O)[C@H](CCN)NC(=O)[C@@H](CCN)NC(=O)[C@H](CCCN)NC(=O)[C@H](CCN)NC(=O)[C@H](Cc2ccc(O)cc2)NC(=O)[C@H](CO)NC(=O)[C@H]([C@@H](C)O)NC(=O)[C@@H]2CCCN2C(=O)[C@H]2CCCN2C(=O)[C@H](Cc2ccc(O)cc2)NC1=O` [compound 158] (cyclo(TSY[Dab][Orn][dDab][Dab]W[Dab][Tle]AY[dP]P)) was run?
**A.** 1%

**Q.** For `CC(C)C[C@@H]1NC(=O)[C@@H]2CCCN2C(=O)[C@H]2CCCN2C(=O)[C@H](CO)NC(=O)[C@H](C)NC(=O)[C@H](C(C)(C)C)NC(=O)[C@H](CCN)NC(=O)[C@H](Cc2c[nH]c3ccccc23)NC(=O)[C@H](CCN)NC(=O)[C@@H](CCN)NC(=O)[C@H](CCCN)NC(=O)[C@H](CCN)NC(=O)[C@H](Cc2c[nH]c3ccccc23)NC(=O)[C@H](CO)NC1=O` [compound 33] (cyclo(LSW[Dab][Orn][dDab][Dab]W[Dab][Tle]AS[dP]P)), which “Hemolysis at 100 μg/ml” value is on record?
**A.** 3.5%

**Q.** For `C[C@@H]1NC(=O)[C@H](CC2CCCCC2)NC(=O)[C@H](CCN)NC(=O)[C@H](Cc2c[nH]c3ccccc23)NC(=O)[C@H](CCN)NC(=O)[C@@H](CCN)NC(=O)[C@H](CCCN)NC(=O)[C@H](CCN)NC(=O)[C@H](C(C)(C)C)NC(=O)[C@H](CO)NC(=O)[C@H](Cc2ccc(O)cc2)NC(=O)[C@@H]2CCCN2C(=O)[C@H]2CCCN2C(=O)[C@H](CO)NC1=O` [compound 66] (cyclo(YS[Tle][Dab][Orn][dDab][Dab]W[Dab][Cha]AS[dP]P)), which “Hemolysis at 100 μg/ml” value is on record?
**A.** 4%

**Q.** Which “Hemolysis at 100 μg/ml” value does the source give for `CC(C)C[C@@H]1NC(=O)[C@@H]2CCCN2C(=O)[C@H]2CCCN2C(=O)[C@H](CO)NC(=O)[C@H](C)NC(=O)[C@H](C(C)(C)C)NC(=O)[C@H](CCN)NC(=O)[C@H](Cc2c[nH]c3ccccc23)NC(=O)[C@H](CCN)NC(=O)[C@@H](CCN)NC(=O)[C@H](CCCN)NC(=O)[C@H](CCN)NC(=O)[C@H](Cc2ccccc2)NC(=O)[C@H](CO)NC1=O` [compound 28] (cyclo(LSF[Dab][Orn][dDab][Dab]W[Dab][Tle]AS[dP]P)) here?
**A.** 2%

**Q.** How did the “Hemolysis at 100 μg/ml” value turn out when `CC(C)C[C@@H]1NC(=O)[C@@H]2[C@@H](O)CCN2C(=O)[C@H]2CCCN2C(=O)[C@H](CO)NC(=O)[C@H](CNC(N)=O)NC(=O)[C@H](C(C)(C)C)NC(=O)[C@H](CCN)NC(=O)[C@H](Cc2c[nH]c3ccccc23)NC(=O)[C@H](CCN)NC(=O)[C@@H](CCN)NC(=O)[C@H](CCCN)NC(=O)[C@H](CCN)NC(=O)[C@H](CC2CCCCC2)NC(=O)[C@H](C)NC1=O` [compound 60] (cyclo(LA[Cha][Dab][Orn][dDab][Dab]W[Dab][Tle][Dap(CONH2)]S[dP][Pro(3S-OH)])) was run?
**A.** 1%

**Q.** For `CC(C)C[C@@H]1NC(=O)[C@@H]2CCCN2C(=O)[C@H]2CCCN2C(=O)[C@H](CO)NC(=O)[C@H](C)NC(=O)[C@H](C(C)(C)C)NC(=O)[C@H](CCN)NC(=O)[C@H](Cc2c[nH]c3ccccc23)NC(=O)[C@H](CCN)NC(=O)[C@@H](CCN)NC(=O)[C@H](CN)NC(=O)[C@H](CCN)NC(=O)[C@H](Cc2ccc(O)cc2)NC(=O)[C@H](CO)NC1=O` [compound 95] (cyclo(LSY[Dab][Dap][dDab][Dab]W[Dab][Tle]AS[dP]P)), which “Hemolysis at 100 μg/ml” value is on record?
**A.** 1%

**Q.** How did the “Hemolysis at 100 μg/ml” value turn out when `CC(C)C[C@@H]1NC(=O)[C@@H]2CCCN2C(=O)[C@H]2CCCN2C(=O)[C@H](CO)NC(=O)[C@H](C)NC(=O)[C@H](CC2CCCCC2)NC(=O)[C@H](CCN)NC(=O)[C@H](Cc2c[nH]c3ccccc23)NC(=O)[C@H](CCN)NC(=O)[C@@H](CCN)NC(=O)[C@H](CCCCN)NC(=O)[C@H](CCN)NC(=O)[C@H](Cc2ccc(O)cc2)NC(=O)[C@H](C)NC1=O` [compound 128] (cyclo(LAY[Dab]K[dDab][Dab]W[Dab][Cha]AS[dP]P)) was run?
**A.** 2%

**Q.** For `CC(C)C[C@@H]1NC(=O)[C@@H]2CCCN2C(=O)[C@H]2CCCN2C(=O)[C@H](CO)NC(=O)[C@H](CC(N)=O)NC(=O)[C@H](C(C)(C)C)NC(=O)[C@H](CCN)NC(=O)[C@H](Cc2c[nH]c3ccccc23)NC(=O)[C@H](CCN)NC(=O)[C@@H](CCN)NC(=O)[C@H](CCCN)NC(=O)[C@H](CCN)NC(=O)[C@H](Cc2ccc(O)cc2)NC(=O)[C@H](CC(=O)O)NC1=O` [compound 123] (cyclo(LDY[Dab][Orn][dDab][Dab]W[Dab][Tle]NS[dP]P)), which “Hemolysis at 100 μg/ml” value is on record?
**A.** 0%

**Q.** With `CCC[C@@H]1NC(=O)[C@@H]2CCCN2C(=O)[C@H]2CCCN2C(=O)[C@H](CO)NC(=O)[C@H](C)NC(=O)[C@H](C(C)(C)C)NC(=O)[C@H](CCN)NC(=O)[C@H](Cc2c[nH]c3ccccc23)NC(=O)[C@H](CCN)NC(=O)[C@@H](CCN)NC(=O)[C@H](CCCN)NC(=O)[C@H](CCN)NC(=O)[C@H](Cc2c[nH]c3ccccc23)NC(=O)[C@H](CO)NC1=O` [compound 80] (cyclo([Nva]SW[Dab][Orn][dDab][Dab]W[Dab][Tle]AS[dP]P)) as the compound, how does the “Hemolysis at 100 μg/ml” value read?
**A.** 1%

**Q.** `CC(C)C[C@@H]1NC(=O)[C@@H]2[C@@H](O)CCN2C(=O)[C@H]2CCCN2C(=O)[C@H](CO)NC(=O)[C@H](C)NC(=O)[C@H](C(C)(C)C)NC(=O)[C@H](CCN)NC(=O)[C@H](Cc2c[nH]c3ccccc23)NC(=O)[C@H](CCN)NC(=O)[C@@H](CCN)NC(=O)[C@H](CCCN)NC(=O)[C@H](CCN)NC(=O)[C@H](CC2CCCCC2)NC(=O)[C@H](CO)NC1=O` [compound 58] (cyclo(AS[dP][Pro(3S-OH)]LS[Cha][Dab][Orn][dDab][Dab]W[Dab][Tle])) was tested. Which “Hemolysis at 100 μg/ml” value did it give?
**A.** 1%

**Q.** For `CC(C)C[C@@H]1NC(=O)[C@@H]2CCCN2C(=O)[C@H]2CCCN2C(=O)[C@H](CO)NC(=O)[C@H](C)NC(=O)[C@H](C(C)(C)C)NC(=O)[C@H](CCN)NC(=O)[C@H](Cc2c[nH]c3ccccc23)NC(=O)[C@H](CCN)NC(=O)[C@@H](CCN)NC(=O)[C@H](CCCN)NC(=O)[C@H](CCN)NC(=O)[C@H](Cc2ccc(O)cc2)NC(=O)[C@H](C)NC1=O` [compound 43] (cyclo(LAY[Dab][Orn][dDab][Dab]W[Dab][Tle]AS[dP]P)), which “Hemolysis at 100 μg/ml” value is on record?
**A.** 1%
